Reference: patent publication US9416353B2, “Covalent tethering of functional groups to proteins and substrates therefor” (Promega Corporation, priority 2004, dated 2016)

Key:
[1] = biological target: hR.Luc-connector-DhaA.H272F-Flag (UniProt P0A3G2+P27652, H272F/T2A); format: cell-based; conditions: Western blot, anti-R.Luc antibody
[2] = biological target: R.Luc-connector-DhaA.H272F (UniProt P0A3G2+P27652, H272F/T2A); format: binding; conditions: pretreatment with non-biotinylated substrate

Row | Molecule | hR.Luc-connector-DhaA.H272F-Flag fusion protein captured [1] | decrease of the efficiency of capturing [2]
1 | O=C(CCCC[C@@H]1SC[C@@H]2NC(=O)N[C@@H]21)NCCOCCOCCCCCCCl [biotin-C10H21NO2—Cl, N-{2-[2-(6-Chlorohexyloxy)-ethoxy]ethyl}-biotin-amide] | more than 50% | 
2 | N-{2-[2-(6-Chlorohexyloxy)-ethoxy]-ethyl}-tetramethylrhodamine-5-(and -6)-amide |  | about 80%
